Measurements from paper PMC6678097, “Machilin A Inhibits Tumor Growth and Macrophage M2 Polarization Through the Reduction of Lactic Acid” (Cancers, 2019).

Assays:
[1] = target: T1, purified recombinant LDHA (Homo sapiens, UniProt P00338); experiment: In vitro LDH activity assay with purified recombinant LDHA; type: biochemical
T1 construct: made in house
Description: (§1) A purification of recombinant LDHA was performed as described previously. LDH activity was determined by measuring the decrease of absorbance at 340 nm due to the oxidation of NADH in 20 mM HEPES-K^+, 0.05% bovine serum albumin (BSA), 20 μM NADH, and 2 mM pyruvate (Sigma-Aldrich, St. Louis, MO, USA) at a pH of 7.2 using a spectrofluorometer (Spectramax M2, Molecular Devices, San Jose, CA, USA; excitation 340 nm; emission 460 nm), as described previously. Ten nanograms of recombinant LDHA protein were used in the in vitro LDH activity assay. One microgram of total protein from cell or tissue lysates was used for intracellular or in vivo LDH assays.

[2] = target: T2, purified recombinant human LDHA (rhLDHA) (Homo sapiens, UniProt P00338); experiment: NADH binding assay (LDHA binding to Cibacron Blue 3GA agarose); conditions: machilin A 10 and 100 μM; NADH positive control
T2 construct: made in house
Description: An NADH binding assay was performed as described previously. The NADH binding ability of LDHA was determined by measuring the affinity of LDHA to agarose-immobilized Cibacron Blue 3GA, which resembles NADH. Then, 400 ng of purified recombinant human LDHA (rhLDHA) was incubated with NADH or MA, followed by incubation with 30 µL of Cibacron Blue agarose at 4 °C for 2 h. After a washing step with 20 mM Tris-HCl (pH 8.6), LDHA bound to beads was eluted in PBS using a sodium dodecyl sulfate (SDS) gel running buffer and was then subjected to–SDS-polyacrylamide gel electrophoresis (SDS-PAGE) and western blotting. Standardized amounts of protein were used in each reaction.

[3] = system: DLD-1; experiment: Lactate production assay; type: cell-based, human; conditions: normoxic
Description: (§2) Cellular lactate production was measured using a lactate fluorometric assay kit (Biovision, Milpitas, CA, USA) as described previously. Phenol red-free DMEM medium without FBS was added to a six-well plate containing subconfluent cells which were then incubated for 1 h at 37 °C. After incubation, the medium of each well was tested using a lactate assay kit (Biovision, Milpitas, CA, USA).

[4] = system: HCC-95; experiment: Lactate production assay; type: cell-based, human; conditions: normoxic
Description: as §2

[5] = system: HT29; experiment: Lactate production assay; type: cell-based, human; conditions: for Lactate (production): normoxic
Description: as §2

[6] = system: Hep3B; experiment: Lactate production assay; type: cell-based, human; conditions: normoxic
Description: as §2

[7] = system: HepG2; experiment: Lactate production assay; type: cell-based, human; conditions: normoxic
Description: as §2

[8] = system: Huh7; experiment: Lactate production assay; type: cell-based, human; conditions: normoxic
Description: as §2

[9] = system: MCF7; experiment: Lactate production assay; type: cell-based, human; conditions: normoxic
Description: as §2

[10] = system: NCI-H1793; experiment: Lactate production assay; type: cell-based, human; conditions: normoxic
Description: as §2

[11] = system: R.K.O; experiment: Lactate production assay; type: cell-based, human; conditions: normoxic
Description: as §2

[12] = system: WiDr; experiment: Lactate production assay; type: cell-based, human; conditions: normoxic
Description: as §2

[13] = system: HT29 colorectal cancer cells; experiment: Measurement of intracellular ATP; type: cell-based, human; conditions: machilin A 30 μM, hypoxia
Description: Intracellular ATP concentration was measured using an ATP bioluminescent somatic cell assay kit (Sigma-Aldrich) as previously described. A total of 1 × 10^6 cells were trypsinized and resuspended in ultrapure water. Luminescence was measured using a spectrofluometer (Spectramax M2, Molecular Devices, CA, USA) immediately after the addition of an ATP enzyme mix to the cell suspension.

[14] = In vivo toxicity to liver and kidney (serum AST, ALT, creatinine, BUN); conditions: mice with allograft tumors
Description: LLC and CT26 cells were suspended separately in PBS (5 × 10^5 cells/100 µL PBS) and inoculated in subcutaneously on the back of 7-week-old C57BL/6 mice and BALB/c mice respectively (Orient Bio Inc., Seongnam, Korea; n = 7). One day after the inoculation with tumor cells, mice of the control group (n = 7) were intraperitoneally administrated 100 µL of PBS per day for 18 days. Each of the MA-treated mice were intraperitoneally administrated 0.02, 0.2, or 1 mg MA, respectively, in 100 µL PBS per 20 g body weight, each day for 18 days. All mice were euthanized 19 days after inoculation with the tumor cells, and the tumors were excised and weighed. Length (l) and width (w) of each tumor were measured using a caliper, and the respective volume (V) was calculated according to the formula V = [(l × w^2)/2]. Tumors were immediately removed from euthanized mice and prepared for histological examinations. To test liver and kidney toxicity of MA, at the end of the in vivo allograft experiment blood was collected from each mouse and serum was separated. Biochemical analyses of aspartate aminotransferase (AST), alanine aminotransferase (ALT), creatinine, and blood urea nitrogen (BUN) were performed using a commercial service (Green Cross Co., Yongin, Korea). […]

[15] = system: LDHA; experiment: LDH activity and LDHA expression in LLC tumor tissue lysates; type: in vivo, mice
Description: as §1
LLC and CT26 cells were suspended separately in PBS (5 × 10^5 cells/100 µL PBS) and inoculated in subcutaneously on the back of 7-week-old C57BL/6 mice and BALB/c mice respectively (Orient Bio Inc., Seongnam, Korea; n = 7). One day after the inoculation with tumor cells, mice of the control group (n = 7) were intraperitoneally administrated 100 µL of PBS per day for 18 days. Each of the MA-treated mice were intraperitoneally administrated 0.02, 0.2, or 1 mg MA, respectively, in 100 µL PBS per 20 g body weight, each day for 18 days. […] Length (l) and width (w) of each tumor were measured using a caliper, and the respective volume (V) was calculated according to the formula V = [(l × w^2)/2]. […]

[16] = system: phospholipase Cγ1; set-up: method as in PMID 15554262; conditions: cited from earlier work

C[C@H](Cc1ccc2c(c1)OCO2)[C@@H](C)Cc1ccc2c(c1)OCO2 [MA, bis(3,4-methylenedioxy)-8,8’-lignan]
mode of inhibition of LDHA activity ([1]; data not shown): competitive inhibition
IC50 ([1]; purified recombinant LDHA, read-out: inhibitory concentration (IC50) for LDHA activity): 84 µM
LDHA binding to Cibacron Blue Agarose beads (NADH mimic) [2]: prohibited LDHA binding
Lactate (production) ([3]; MA 10 µM): 3680 ± 90 µM
Lactate (production) ([3]; MA 50 µM): 2940 ± 170 µM
Lactate (production) ([4]; MA 10 µM): 2250 ± 160 µM
Lactate (production) ([4]; MA 50 µM): 1760 ± 100 µM
Lactate (production) ([5]; MA 10 µM): 3420 ± 370 µM
Lactate (production) ([5]; MA 50 µM): 2730 ± 40 µM
increase of lactate production in hypoxic condition ([5]; machilin A 30 μM, hypoxia): significantly reduced
Lactate (production) ([6]; MA 10 µM): 1120 ± 40 µM
Lactate (production) ([6]; MA 50 µM): 730 ± 10 µM
Lactate (production) ([7]; MA 10 µM): 510 ± 60 µM
Lactate (production) ([7]; MA 50 µM): 470 ± 70 µM
Lactate (production) ([8]; MA 10 µM): 1140 ± 320 µM
Lactate (production) ([8]; MA 50 µM): 670 ± 150 µM
Lactate (production) ([9]; MA 10 µM): 1070 ± 150 µM
Lactate (production) ([9]; MA 50 µM): 770 ± 190 µM
Lactate (production) ([10]; MA 10 µM): 2360 ± 260 µM
Lactate (production) ([10]; MA 50 µM): 2040 ± 380 µM
Lactate (production) ([11]; MA 10 µM): 2760 ± 60 µM
Lactate (production) ([11]; MA 50 µM): 2480 ± 60 µM
Lactate (production) ([12]; MA 10 µM): 3220 ± 50 µM
Lactate (production) ([12]; MA 50 µM): 2700 ± 60 µM
increase of adenosine triphosphate (ATP) synthesis in hypoxic condition [13]: significantly reduced
in vivo toxicity to liver and kidney [14]: no significant toxic effect
activity of LDH in LLC cell allografts ([15]; tumor tissue lysates): clearly inhibited
expression of LDHA in LLC cell allografts ([15]; western blot of tumor tissue): did not affect
effect on phospholipase Cγ1 [16]: inhibiting phospholipase Cγ1
